Our source for the Ki and melting point values is patent US20030073850A1, “4-Imidazole derivatives of benzyl and restricted benzyl sulfonamides, sulfamides, ureas, carbamates, and amides and their use” (priority 1998, published 2003).

The structures appear in SMILES notation. Structures can show the parent of a compound that is named as a salt. Where two headings read alike, the source gives them in different places.

For series [1], the target named is T1, α1d (rat receptor expressed in mouse fibroblasts) (Rattus norvegicus, UniProt P23944).
T1 construct: expressed in transfected cells; host or cells: mouse fibroblasts
T1 sequence (P23944 1-561): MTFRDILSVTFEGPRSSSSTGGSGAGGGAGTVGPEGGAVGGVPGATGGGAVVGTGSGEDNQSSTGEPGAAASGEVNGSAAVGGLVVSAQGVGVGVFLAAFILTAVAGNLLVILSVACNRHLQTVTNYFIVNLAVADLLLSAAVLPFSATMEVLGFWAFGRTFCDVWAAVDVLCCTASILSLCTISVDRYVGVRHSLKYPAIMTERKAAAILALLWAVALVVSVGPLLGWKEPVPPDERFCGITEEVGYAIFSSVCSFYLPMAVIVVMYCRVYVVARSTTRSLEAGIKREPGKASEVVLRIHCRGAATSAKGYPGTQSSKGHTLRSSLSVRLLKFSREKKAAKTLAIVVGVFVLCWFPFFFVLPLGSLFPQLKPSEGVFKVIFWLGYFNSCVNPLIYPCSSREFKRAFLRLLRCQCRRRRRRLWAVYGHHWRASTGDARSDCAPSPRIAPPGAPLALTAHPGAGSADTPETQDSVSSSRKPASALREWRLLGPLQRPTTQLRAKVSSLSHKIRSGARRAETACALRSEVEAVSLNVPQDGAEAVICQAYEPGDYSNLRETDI
As to the kind of experiment: Radioligand binding, [3H]-prazosin, α1d. The protocol: (§1) For purposes of discussing a, adrenoceptor subtypes, the IUPHAR convention of using lower case letters to define molecular clones and upper case letters to indicate pharmacologically defined adrenoceptors has been followed. Compounds of formula I were evaluated in radioligand binding assays specific for α1A (rat submaxillary gland), α1b (hamster receptor expressed in mouse fibroblasts) and α1d (rat receptor expressed in mouse fibroblasts) using [^3H]-prazosin as the radioligand as described in Knepper, et al. J. Pharm.

The target in series [2] is T2, α1b (hamster receptor expressed in mouse fibroblasts) (Mesocricetus auratus, UniProt P18841).
T2 construct: expressed in transfected cells; host or cells: mouse fibroblasts
T2 sequence (P18841 1-515): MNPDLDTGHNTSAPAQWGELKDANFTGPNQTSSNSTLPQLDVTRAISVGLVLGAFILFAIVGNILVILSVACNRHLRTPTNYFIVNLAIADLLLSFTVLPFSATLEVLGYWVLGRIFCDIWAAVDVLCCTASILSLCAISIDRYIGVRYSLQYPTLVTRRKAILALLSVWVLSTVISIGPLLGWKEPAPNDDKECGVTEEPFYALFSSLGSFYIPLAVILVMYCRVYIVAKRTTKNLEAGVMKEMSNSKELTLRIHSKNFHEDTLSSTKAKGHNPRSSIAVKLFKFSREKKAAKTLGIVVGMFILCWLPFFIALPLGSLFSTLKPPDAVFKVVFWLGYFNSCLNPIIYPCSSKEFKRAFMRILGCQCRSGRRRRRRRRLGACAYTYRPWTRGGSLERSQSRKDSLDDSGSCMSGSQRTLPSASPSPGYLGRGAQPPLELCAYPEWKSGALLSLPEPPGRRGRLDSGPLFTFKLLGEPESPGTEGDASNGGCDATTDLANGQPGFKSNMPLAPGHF
As to the kind of experiment: Radioligand binding, [3H]-prazosin, α1b. The method, then:
as §1

Series [3] addresses T3, α1A (rat submaxillary gland) (Rattus norvegicus, UniProt P43140).
T3 construct: α1A (rat submaxillary gland); from tissue; host or cells: rat submaxillary gland
T3 sequence (P43140 1-466): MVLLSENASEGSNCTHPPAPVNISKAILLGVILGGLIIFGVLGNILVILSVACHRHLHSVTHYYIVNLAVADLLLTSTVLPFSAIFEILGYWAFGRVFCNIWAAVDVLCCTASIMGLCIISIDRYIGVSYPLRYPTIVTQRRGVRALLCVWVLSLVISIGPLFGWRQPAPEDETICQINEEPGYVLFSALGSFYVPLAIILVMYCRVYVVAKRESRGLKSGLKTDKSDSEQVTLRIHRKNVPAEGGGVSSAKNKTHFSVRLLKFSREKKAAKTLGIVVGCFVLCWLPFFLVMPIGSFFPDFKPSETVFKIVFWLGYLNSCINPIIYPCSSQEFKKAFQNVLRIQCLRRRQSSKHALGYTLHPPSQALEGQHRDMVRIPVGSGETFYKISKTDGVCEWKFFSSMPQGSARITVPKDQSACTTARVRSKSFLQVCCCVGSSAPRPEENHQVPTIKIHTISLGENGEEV
As to the kind of experiment: Radioligand binding, [3H]-prazosin, α1A. The protocol:
as §1

Where [4] appears, read: rat receptor expressed in mouse fibroblasts, [3H]-prazosin, read-out: Radioligand Binding Ki α1d (Rat).
[5] abbreviates: hamster receptor expressed in mouse fibroblasts, [3H]-prazosin, read-out: Radioligand Binding Ki α1b (Hamster).

A word on the Ki: it is the dissociation constant of the complex between target and ligand, obtained from inhibition or displacement. The term melting point denotes the temperature, or range, at which the solid turns liquid. In the case of `CCS(=O)(=O)Nc1cccc2c1CCCCC2c1c[nH]cn1.O=C(O)/C=C\C(=O)O` (centres unmarked) [Example 40, N-[5-(1H-imidazol-4-yl)-6,7,8,9-tetrahydro-5H-benzo[a]cyclohepten-1-yl]ethanesulfonamide, Maleate], the melting point was in the range of 155 to 156 °C. Moreover, the Ki in series [1] (setting [4]) is 10 µM. In addition, the Ki in series [2] (setting [5]) is 10 µM.
Turning to `CS(=O)(=O)Nc1ccc(O)c2c1CCCC2c1c[nH]cn1.O=C(O)/C=C\C(=O)O` (centres unmarked) [Example 24, N-[5,6,7,8-tetrahydro-4-hydroxy-5-(1H-imidazol-4-yl)-1-naphthalenyl]methanesulfonamide, Maleate], the melting point was 127 to 131 °C. For the same compound, the Ki in series [1] (setting [4]) stood at 10 µM. Besides, the Ki in series [2] (setting [5]) was 10 µM.
For `Cc1ccc(OC(=O)Nc2cccc3c2CCCC3c2c[nH]cn2)cc1` (centres unmarked) [Example 124, 4-methylphenyl 5-(1H-imidazol-4-yl)-5,6,7,8-tetrahydro-1-naphthalenylcarbamate], the Ki was 0.787 µM in series [1], 1.47 µM in series [2] and 0.451 µM in series [3].
In the case of `O=S(=O)(CC(F)(F)F)Nc1cccc2c1CCCC2c1c[nH]cn1` (single isomer, unassigned; (+)) [Example 36, (+)-N-[5,6,7,8-tetrahydro-5-(1H-imidazol-4-yl)-1-napbthalenyl]-2,2,2-trifluoroethanesulfonamide], the melting point was > 260 °C. For the same compound, the Ki in series [1] (setting [4]) was 10 µM.
With `COC(=O)Nc1cccc2c1CCCC2c1c[nH]cn1` (centres unmarked) [Example 119, methyl 5-(1H-imidazol-4-yl)-5,6,7,8-tetrahydro-1-naphthalenylcarbamate], the Ki in series [1] turned out to be 3.04 µM; in series [2] it was 10 µM.
`CCN(C(=O)Nc1cccc2c1CCCC2c1c[nH]cn1)C(C)C` (centres unmarked) [Example 118, N-ethyl-N′-[5-(1H-imidazol-4-yl)-5,6,7,8-tetrahydro-1-naphthalenyl]-N-isopropylurea]: the Ki is 0.92 µM in series [1] (setting [4]), 10 µM in series [2] (setting [5]) and 0.329 µM in series [3].
Consider `CCS(=O)(=O)Nc1ccc(OC)c2c1CCCC2c1c[nH]cn1` (centres unmarked) [Example 25, N-[5,6,7,8-tetrahydro-(1H-imidazol-4-yl)-4-methoxy-1-naphthalenyl]ethanesulfonamide, Maleate], for which the Ki in series [1] (setting [4]) and in series [2] (setting [5]) was 10 µM throughout.
`CCS(=O)(=O)Nc1cccc2c1OCCC2c1c[nH]cn1` (centres unmarked) [Example 79, N-[4-(1H-imidazol-4-yl)-3,4-dihydro-2H-chromen-8-yl]ethanesulfonamide]: the Ki was found to be 10 µM in series [1] (setting [4]), 10 µM in series [2] (setting [5]) and 0.638 µM in series [3].
On to `CCS(=O)(=O)Nc1cc(F)cc2c1CCCC2c1c[nH]cn1` (centres unmarked) [Example 131, N-[3-fluoro-5-(1H-imidazol-4-yl)-5,6,7,8-tetrahydro-1-naphthalenyl]ethanesulfonamide], for which the Ki in series [1] (setting [4]) was 2.16 µM; in series [2] (setting [5]), 10 µM; in series [3], 0.09 µM.
In the case of `O=S(=O)(CC(F)(F)F)Nc1cccc2c1OCCC2c1c[nH]cn1` (single isomer, unassigned) [Example 88, 2,2,2-trifluoro-N-[4-(1H-imidazol-4-yl)-3,4-dihydro-2H-chromen-8-yl]ethanesulfonamide], the Ki in series [1] (setting [4]) worked out at 10 µM; in series [2] (setting [5]), 10 µM; in series [3] it was 0.573 µM.
Consider `Cc1noc(C)c1S(=O)(=O)Nc1cccc2c1CCCC2c1c[nH]cn1` (centres unmarked) [Example 61, N-[5-(1H-imidazol-4-yl)-5,6,7,8-tetrahydro-1-naphthalenyl]-3,5-dimethyl-4-isoxazolesulfonamide], for which the Ki in series [1] (setting [4]) and in series [2] (setting [5]) was 10 µM in each case.
As for `CCOC(=O)Nc1cccc2c1CCCC2c1c[nH]cn1` (centres unmarked) [Example 120, ethyl 5-(1H-imidazol-4-yl)-5,6,7,8-tetrahydro-1-naphthalenylcarbamate], the inhibition constant (Ki) in series [1] (setting [4]) stood at 2.91 µM; in series [2] (setting [5]) it was 10 µM; in series [3] it was 0.164 µM.
